According to US11242327B2, “Analgesic compounds” (RECURIUM IP HOLDINGS, LLC, priority 2017, dated 2022):

Experiments:
[1] = test system: male Sprague-Dawley rats; experiment: Spinal Nerve Ligation (SNL) Neuropathic Pain Test; format: in vivo; conditions: rat, oral; for 50% response threshold, 1 h: 1 h after administration; for 50% response threshold, 2 h: 2 h after administration; for 50% response threshold, 4 h: 4 h after administration
Procedure: Neuropathy was induced in non-fasted male Sprague-Dawley rats weighing 75-100 g by surgically ligating the 4th and 5th lumbar spinal nerves (L4 and L5), a procedure also known as spinal nerve ligation (SNL). Animals were placed in individual acrylic chambers on a metal mesh surface and allowed to acclimate to their surroundings for a minimum of 15 minutes before testing. Mechanical sensitivity was assessed using 8 Semmes-Weinstein filaments (Stoelting©; Wood Dale, Ill., USA) with varying stiffness (0.4, 0.6, 1.0, 2.0, 4.0, 6.0, 8.0, and 15 g) according to an up-down method to determine 50% response thresholds. Each filament was presented perpendicular to the plantar surface with sufficient force to cause slight buckling against the paw and held for approximately 6 seconds or until a positive response is noted (paw sharply withdrawn). Testing was initiated with the 2.0 g filament. In the absence of a paw withdrawal response, the next stronger stimulus was presented. In the event of paw withdrawal, the next weaker stimulus was used. This process was repeated until 4 responses after the initial change in response (no response to positive response or positive response to no response) were obtained. […] The 50% response threshold was calculated using the formula: 50% response threshold (g)=(10^(Xf+kδ))/10,000;
Xf=value (in log units) of the final von Frey filament used;
k=tabular value for the pattern of positive/negative responses (See Chaplan, et al. “Quantitative Assessment of Tactile Allodynia in the Rat Paw” J. Neurosci. Meth. 53.1 (1994): 56-63);
[…] =mean difference (in log units) between stimuli.
The mean and standard error of the mean (SEM) were determined for each paw for each treatment group at each time point. Thresholds were determined prior to surgery and again 14 days later. After 14 days, test or control compounds were administered and thresholds were again determined 1, 2, and 4 hours after compound administration. Median response thresholds in compound-treated animals were compared to those in vehicle treated animals to determine anti-allodynic efficacy of test and control compounds. Test compounds were administered orally at concentrations of 10, 30 or 100 mg/kg and gabapentin was administered orally at a concentration of 100 mg/kg. The control group received the vehicle (sterile water). In Table 7, ‘A’ designates a 50% threshold of ≥8 grams, ‘B’ designates a 50% threshold of ≥6 and <8 grams, and ‘C’ designates a 50% threshold of <6 grams.
The results provided in Table 7 are for oral administration in rats.

[2] = biological target: Opiate κ (Homo sapiens, UniProt P41145); experiment: NSAIDS and Opioid Receptor Test: Opiate κ; format: binding; conditions: 10 μM
Procedure: (§1) Compounds were screened as DMSO solutions at 10 μM, 100 μM, or 200 μM and values represent percent inhibition of control-specific binding. […] As NSAID and opioid mechanisms of action are precluded, a person of ordinary skill in the art understands that undesirable side effects associated with inhibition of COX receptors in NSAIDs and activation of opiate receptors in opioids can be avoided by compounds described herein. Furthermore, opioids are known to lose their analgesic potency after to continued administration. (See Benyamin, et al. “Opioid Complications and Side Effects” Pain Physician 11 (2008): S105-S120). As the data indicates compounds described herein have a different mechanism action compared to opioids, a person of ordinary skill in the art would appreciate that compounds described herein would not be expected to lose their analgesic potency like opioids after continued admininistration.

[3] = Bioavailability Test (rat pharmacokinetics); format: in vivo; conditions: for F: PO 30 mg/kg vs IV 3 mg/kg; for AUC(0-inf) / clearance / half-life / Vd / Cmax / Tmax: male, Sprague-Dawley, in vivo; for Vd: read-out: Vdss
Procedure: Oral bioavailability of compounds of Formulae (Ie), (Ih), (Ik), and (Ir), or a pharmaceutically acceptable salt of any of the foregoing, were evaluated in fasted male Sprague-Dawley (SD) rats weighing 200-225g. Compounds were dosed at 3 mg/kg (IV) and 30 mg/kg (PO). Unless otherwise noted, compounds were dissolved in 0.9% saline for IV dosing and 100% sterile water for PO dosing. Pharmacokinetic parameters were determined using Phoenix WinNonlin (v7.0). […]

[4] = biological target: COX-1 (Homo sapiens, UniProt P23219); experiment: NSAIDS and Opioid Receptor Test: COX-1; format: biochemical; conditions: 200 μM
Procedure: as §1

[5] = biological target: T1, COX-2 (Homo sapiens, UniProt P35354); experiment: NSAIDS and Opioid Receptor Test: COX-2; format: biochemical; conditions: 200 μM
T1 sequence (P35354 18-604): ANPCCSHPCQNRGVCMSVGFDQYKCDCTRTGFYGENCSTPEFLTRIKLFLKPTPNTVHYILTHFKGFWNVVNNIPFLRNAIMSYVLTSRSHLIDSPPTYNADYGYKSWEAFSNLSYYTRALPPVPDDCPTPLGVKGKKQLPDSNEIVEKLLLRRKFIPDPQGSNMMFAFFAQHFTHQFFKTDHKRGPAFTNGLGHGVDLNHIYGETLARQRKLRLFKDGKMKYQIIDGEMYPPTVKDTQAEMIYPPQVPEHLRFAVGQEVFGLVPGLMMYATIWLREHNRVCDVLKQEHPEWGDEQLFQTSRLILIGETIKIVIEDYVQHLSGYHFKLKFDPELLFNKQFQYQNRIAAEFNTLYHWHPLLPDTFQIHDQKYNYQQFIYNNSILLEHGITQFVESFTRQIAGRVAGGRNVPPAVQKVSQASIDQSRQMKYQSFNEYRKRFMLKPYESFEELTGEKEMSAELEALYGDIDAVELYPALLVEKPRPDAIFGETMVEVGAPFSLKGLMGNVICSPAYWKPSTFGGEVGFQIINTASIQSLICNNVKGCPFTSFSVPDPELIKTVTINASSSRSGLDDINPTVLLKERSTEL
Procedure: as §1

Chain of Opiate κ (P41145 whole entry): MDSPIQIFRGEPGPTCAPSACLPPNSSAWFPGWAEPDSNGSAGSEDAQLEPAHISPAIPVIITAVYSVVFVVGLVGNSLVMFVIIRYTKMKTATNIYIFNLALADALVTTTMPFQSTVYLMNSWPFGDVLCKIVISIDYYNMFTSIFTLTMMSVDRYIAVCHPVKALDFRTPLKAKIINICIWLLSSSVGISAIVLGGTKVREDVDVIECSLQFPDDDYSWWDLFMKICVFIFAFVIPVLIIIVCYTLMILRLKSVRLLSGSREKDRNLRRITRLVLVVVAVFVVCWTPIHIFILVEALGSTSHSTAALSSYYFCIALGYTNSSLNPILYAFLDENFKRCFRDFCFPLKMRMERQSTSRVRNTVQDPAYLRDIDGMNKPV
Chain of COX-1 (P23219 24-599): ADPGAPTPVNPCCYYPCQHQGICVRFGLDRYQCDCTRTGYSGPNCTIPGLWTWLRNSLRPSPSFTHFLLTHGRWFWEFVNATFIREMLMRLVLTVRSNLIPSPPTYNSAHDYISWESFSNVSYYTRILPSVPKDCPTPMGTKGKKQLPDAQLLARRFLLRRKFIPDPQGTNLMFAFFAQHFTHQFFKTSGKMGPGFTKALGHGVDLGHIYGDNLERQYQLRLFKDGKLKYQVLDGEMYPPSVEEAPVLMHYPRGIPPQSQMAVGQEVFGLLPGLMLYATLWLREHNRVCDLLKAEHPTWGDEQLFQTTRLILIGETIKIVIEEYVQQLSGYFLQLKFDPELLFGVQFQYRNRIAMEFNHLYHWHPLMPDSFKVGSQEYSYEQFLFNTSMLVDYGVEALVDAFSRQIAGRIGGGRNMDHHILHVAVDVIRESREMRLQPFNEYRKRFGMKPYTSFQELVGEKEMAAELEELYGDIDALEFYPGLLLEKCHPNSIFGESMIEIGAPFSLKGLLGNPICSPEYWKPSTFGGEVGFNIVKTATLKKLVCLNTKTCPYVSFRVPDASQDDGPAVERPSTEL

| Structure (SMILES) | 50% response threshold, 1 h ([1]; 10 mg/kg) | 50% response threshold, 2 h ([1]; 10 mg/kg) | 50% response threshold, 4 h ([1]; 10 mg/kg) | 50% response threshold, 1 h ([1]; 30 mg/kg) | 50% response threshold, 2 h ([1]; 30 mg/kg) | 50% response threshold, 4 h ([1]; 30 mg/kg) | 50% response threshold, 1 h ([1]; 100 mg/kg) | 50% response threshold, 2 h ([1]; 100 mg/kg) | 50% response threshold, 4 h ([1]; 100 mg/kg) | inhibition at 10 µM [2] | F [3] | AUC(0-inf) ([3]; IV 3 mg/kg, 0.9% saline) | clearance ([3]; IV 3 mg/kg, 0.9% saline) | half-life ([3]; IV 3 mg/kg, 0.9% saline) | Vd ([3]; IV 3 mg/kg, 0.9% saline) | AUC(0-inf) ([3]; PO 30 mg/kg, sterile water) | Cmax ([3]; PO 30 mg/kg, sterile water) | Tmax ([3]; PO 30 mg/kg, sterile water) | half-life ([3]; PO 30 mg/kg, sterile water) | further results |
| --- | --- | --- | --- | --- | --- | --- | --- | --- | --- | --- | --- | --- | --- | --- | --- | --- | --- | --- | --- | --- |
| Cl.NC12CC(c3nc(C(F)(F)F)cs3)(C1)C2 [Compound 1, 3-(4-(Trifluoromethyl)thiazol-2-yl)bicyclo[1.1.1]pentan-1-amine hydrochloride] | C (a 50% threshold of <6 grams) | C (a 50% threshold of <6 grams) | C (a 50% threshold of <6 grams) | B (a 50% threshold of ≥6 and <8 grams) | B (a 50% threshold of ≥6 and <8 grams) | C (a 50% threshold of <6 grams) | A (a 50% threshold of ≥8 grams) | A (a 50% threshold of ≥8 grams) | A (a 50% threshold of ≥8 grams) | -4% | 115% | 19.2 µM·h | 11 mL/min/kg | 3.1 h | 1.4 L/kg | 277 µM·h | 49 µM | 0.3 h | 5.6 h | – |
| Cc1sc(C23CC(N)(C2)C3)nc1C(F)(F)F.Cl [Compound 2, 3-(5-Methyl-4-(trifluoromethyl)thiazol-2-yl)bicyclo[1.1.1]pentan-1-amine hydrochloride] | C (a 50% threshold of <6 grams) | C (a 50% threshold of <6 grams) | C (a 50% threshold of <6 grams) | C (a 50% threshold of <6 grams) | C (a 50% threshold of <6 grams) | C (a 50% threshold of <6 grams) | A (a 50% threshold of ≥8 grams) | A (a 50% threshold of ≥8 grams) | B (a 50% threshold of ≥6 and <8 grams) | -9% | 79% | 4 µM·h | 52 mL/min/kg | 2.7 h | 3.6 L/kg | 29 µM·h | 12 µM | 1 h | 2.4 h | inhibition at 200 µM [4]: 15%; inhibition at 200 µM [5]: -2% |
